Assay results: patent US20060166867A1, “Novel conjugates of polysaccharides and uses thereof” (priority 2003, published 2006)
“And” between values parts separate entries of the source, which are not always exact repeats. Equal entries are not always repeated. Where two headings read alike, the source gives them in different places.

Key:
[1] = system: K. pneumoniae-ESBL negative; conditions: Gram negative clinical isolate
E. Coli-ESBL positive = conditions: Gram negative clinical isolate
[2] = system: Streptococcus bovis ATCC 9809; assay: MIC, broth microdilution; type: cell-based; conditions: Gram positive reference strain
Protocol: (§1) Minimal Inhibition Concentration (MIC) measurements: The Minimal Inhibitory Concentration (MIC) was generally determined by the Broth Microdilution method (based on the protocol described in Clinical and Laboratory Standard Institute (CLSI) NCCLS (2003) M7-A6), as follows:
(§2) A stock solution of each of the tested compounds was prepared by diluting the compound to a 2,560 μg/ml concentration with an appropriate solvent. The stock solution was then serially 2-fold diluted in 96-well microdilution trays using Cation-Adjusted Mueller-Hinton Broth (CAMHB) until reaching the desired range of concentrations, whereas each well contained double the final working concentration. Each row further had one growth control well (medium+inoculum only), and one sterility control well (medium+tested compound). Plates were stored at −70° C. until used.
(§3) The tested microorganisms were used as fresh overnight cultures on blood agar (for gram-positive organisms) or MacConkey agar (for gram-negatives). A standardized inoculum suspension was prepared by the direct colony suspension method, using sterile saline (equivalent to a 0.5 McFarland standard).
(§4) Thus, 50 μl of the inoculum suspension were added to each tested well (except for the sterility control well), and […] was performed during 18-24 hours (depending on the tested microorganism or compound) at 35° C.

S. epidermidis MSSE = conditions: Gram positive clinical isolate
[3] = system: Acinetobacter baumannii ATCC 19606; conditions: Gram negative reference strain
S. aureus MSSA = conditions: Gram positive clinical isolate
[4] = system: P. aeruginosa-gentamicin^s, meropenem^s; conditions: Gram negative clinical isolate
[5] = system: A. baumannii-amikacin^r, meropenem^r; conditions: Gram negative clinical isolate
[6] = system: P. aeruginosa-gentamicin^r, meropenem^r; conditions: Gram negative clinical isolate
[7] = system: Escherichia coli ATCC 25922; conditions: Gram negative reference strain
HIV-1 Ba-L = type: cell-based; conditions: Table 4
Protocol: (§5) Inhibition of HIV-1 cell replication was tested using the cMAGI assay, which is based on the ability of HIV-1 TAT to transactivate the expression of an integrated β-galactosidase reporter gene driven by the HIV-LTR (B. Chackeria et al., J. Virol., (1997) 71, 3932; Collins et al., Nat. Med. (2000) 6, 475). The β-galactosidase reporter is modified to remain localized in the nucleus where it can be detected with the X-gal (5-bromo-4-chloro-3indoyl-β-D-galactopyranoside) substrate as an intense nuclear stain within a few days of infection.
(§6) HIV-1 isolates were propagated by subculture in MT2 cells (Litovchick et al. (2001) supra). Aliquots of cell-free culture supernatants were used as viral inoculum. PAACs were dissolved in the RPMI 1640 medium. Cytotoxicity determinations were carried out in MT2 cells by trypan blue exclusion assay. Viral inhibition was determined by incubating MT2 or cMAGI HIV-1 reporter cells with 0.2-0.5 multiplicity of infection of HIV-1 wild type or resistant virus for 4 days at 37° C. in the presence or absence of various concentrations of pAACs. HIV-1 infection of cMAGI cells was determined by counting the number of HIV-1-infected cells (stained blue). The cytopathic effects of the viral infection of MT2 cells were also analyzed by microscopic assessment of syncytium formation.

[8] = system: HIV-1 AZT resistant virus; type: cell-based; conditions: Table 4; read-out: EC50 AZT^Res
Protocol: as §5, §6

[9] = system: HIV-1 NeoR6 resistant virus; type: cell-based; conditions: read-out: EC50 NeoR6^Res; Table 4
Protocol: as §5, §6

[10] = system: HIV-1 Protease resistant virus; type: cell-based; conditions: Table 4; read-out: EC50 Protease^Res
Protocol: as §5, §6

[11] = system: HIV-1 clinical isolate Clade A; type: cell-based
Protocol: as §5, §6

[12] = system: HIV-1 clinical isolate Clade C; type: cell-based
Protocol: as §5, §6

S. epidermidis MRSE = conditions: Gram positive clinical isolate
[13] = system: Staphylococcus aureus ATCC 24213; conditions: Gram positive reference strain
[14] = system: Proteus mirabilis ATCC 7002; conditions: Gram negative reference strain
[15] = system: Moraxella catarrhalis ATCC 25238 (Branhamella); conditions: Gram negative reference strain
HIV-1 IIIB = assay: microbe, parasite or virus in culture; type: cell-based
Procedure, shortened: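 cMAGI β-galactosidase reporter cells or MT2 cells infected at 0.2-0.5 MOI with wild-type or resistant HIV-1 and incubated 4 days at 37 °C with varying compound concentrations. Infection scored by counting X-gal-stained blue cMAGI cells; MT2 syncytium formation assessed microscopically, cytotoxicity by trypan blue exclusion.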

[16] = system: A. baumannii-amikacin^s, meropenem^s; conditions: Gram negative clinical isolate
E. Coli-ESBL negative = conditions: Gram negative clinical isolate
Enterobacter aerogenes = conditions: Gram negative clinical isolate
E. coli U3075921 = assay: MIC, broth microdilution; type: cell-based, Escherichia coli; conditions: clinical isolate, Table 7
Protocol: as §1, §2, §3, §4

E. coli U23773^r = conditions: Gram negative clinical isolate
[17] = system: Enterococcus faecalis ATCC 29212; conditions: Gram positive reference strain
[18] = system: Pseudomonas aeruginosa ATCC 27853; conditions: Gram negative reference strain
[19] = system: Enterococcus faecium (clinical isolate); assay: MIC, broth microdilution; type: cell-based; conditions: Gram positive clinical isolate; for MIC: read-out: Minimum Inhibitory Concentration

Compound	Minimum Inhibitory Concentration [1]	Minimum Inhibitory Concentration (E. Coli-ESBL positive)	Minimum Inhibitory Concentration [2]	Minimum Inhibitory Concentration (S. epidermidis MSSE)	Minimum Inhibitory Concentration [3]	Minimum Inhibitory Concentration (S. aureus MSSA)	Minimum Inhibitory Concentration [4]	Minimum Inhibitory Concentration [5]	Minimum Inhibitory Concentration [6]	Minimum Inhibitory Concentration [7]	EC50 (HIV-1 Ba-L)	EC50 [8]	EC50 [9]	EC50 [10]	Minimum Inhibitory Concentration (S. epidermidis MRSE)	Minimum Inhibitory Concentration [13]	Minimum Inhibitory Concentration [14]	Minimum Inhibitory Concentration [15]	EC50 (HIV-1 IIIB; Table 4, read-out: EC50 IIIB)	Minimum Inhibitory Concentration (E. coli U23773^r)	further results
CC(=O)N[C@H](CCCNC(=N)N)C(=O)N[C@H](CCCNC(=N)N)C(=O)N[C@H](CCCNC(=N)N)C(=O)N[C@H](CCCNC(=N)N)C(=O)N[C@H](CCCNC(=N)N)C(=O)N[C@H](CCCNC(=N)N)C(=O)N[C@H](CCCNC(=N)N)C(=O)N[C@H](CCCNC(=N)N)C(=O)N[C@H](CCCNC(=N)N)C(=O)O [Compound 12, D-Arg-9-mer-NHAc]	256.0 mg/liter and 127.64 μM	64.0 mg/liter and 31.91 μM	128.0 mg/L	8.0 mg/liter and 3.99 μM	> 256.0 mg/liter and 127.64 μM	> 128.0 mg/liter and 63.82 μM	> 256.0 mg/liter and 127.64 μM	> 256.0 mg/liter and 127.64 μM	> 256.0 mg/liter and 127.64 μM	128.0 mg/liter and 63.82 μM	> 50 µM	9.7 ± 5.9 µM	2 ± 1.2 µM	1.4 ± 0.6 µM	96.0 mg/liter and 47.86 μM	128.0 mg/liter and 63.82 μM	> 256.0 mg/liter and 127.64 μM	16.0 mg/liter and 7.98 μM	1.5 ± 0.6 µM	64.0 mg/L	EC50 ([11]; clinical isolate Clade A): 2.2 ± 0.3 µM; EC50 ([12]; clinical isolate Clade C): 1.6 ± 0.4 µM; Minimum Inhibitory Concentration [16]: 256.0 mg/liter and 127.64 μM; Minimum Inhibitory Concentration (E. Coli-ESBL negative): 128.0 mg/liter and 63.82 μM; Minimum Inhibitory Concentration (Enterobacter aerogenes): 128.0 mg/liter and 63.82 μM; Minimum Inhibitory Concentration (E. coli U3075921): 96.0 mg/L; Minimum Inhibitory Concentration [17]: 64.0 mg/liter and 31.91 μM; Minimum Inhibitory Concentration [18]: > 256.0 mg/liter and 127.64 μM
NCC1OC(OC2C(CO)OC(OC3C(O)C(N)CC(N)C3OC3OC(CN)C(O)C(O)C3N)C2O)C(N)C(O)C1O (centres unmarked) [Neomycin]								105.61 µM												140.81 µM	EC50 (HIV-1 IIIB; Human immunodeficiency virus 1, MT2, Table 3, against HIV-1 IIIB virus, read-out: EC50): > 200 µM; MIC ([19]; Enterococcus faecium): 256 µg/mL and 282 µM
D-Arg-9-mer-neomycin [Compound 14]	64.0 mg/liter and 22.05 μM	24.0 mg/liter and 8.27 μM	24.0 mg/L	0.52 µM	> 256.0 mg/liter and 88.22 μM	16.0 mg/liter and 5.51 μM	> 256.0 mg/liter and 88.22 μM	> 256.0 mg/liter and 88.22 μM	> 156.0 mg/liter and 53.76 μM	32.0 mg/liter and 11.02 μM	> 50 µM	6.6 ± 5.9 µM	2 ± 0.5 µM	1.5 ± 0.4 µM	8.0 mg/liter and 2.76 μM	32.0 mg/liter and 11.02 μM	64.0 mg/liter and 22.05 μM	8.0 mg/liter and 2.76 μM	1.3 ± 0.4 µM	32.0 mg/L	EC50 ([11]; Table 4, read-out: EC50 Clade A): 2.1 ± 0.4 µM; EC50 ([12]; Table 4, read-out: EC50 Clade C): 1.2 ± 0.5 µM; Minimum Inhibitory Concentration [16]: 128.0 mg/liter and 44.11 μM; Minimum Inhibitory Concentration (E. Coli-ESBL negative): 16.0 mg/liter and 5.51 μM; Minimum Inhibitory Concentration (Enterobacter aerogenes): 32.0 mg/liter and 11.02 μM; Minimum Inhibitory Concentration (E. coli U3075921): 48.0 mg/liter and 16.54 μM; Minimum Inhibitory Concentration [19]: 24.0 mg/L; MIC [19]: 8.27 µM; Minimum Inhibitory Concentration [17]: 128.0 mg/liter and 44.11 μM; Minimum Inhibitory Concentration [18]: > 256.0 mg/liter and 88.22 μM
